According to patent publication US8436043B2 (Takeda Pharmaceutical Company Limited, priority 2008, dated 2013):

The compounds below were run against T1, human glucagon receptor (Homo sapiens, UniProt P47871) (assay: Glucagon binding inhibitory activity ([125I]-glucagon binding to glucagon receptor membrane protein)). Settings: test compound 10 μM; 0.4% DMSO = 0%, non-labeled glucagon 1 μM = 100%.
T1 construct: made in house; host or cells: FreeStyle CHO cells, transient transfection with pMSRαneo/hGCGR; membrane fraction (35,000 rpm pellet)
T1 sequence (P47871 26-477): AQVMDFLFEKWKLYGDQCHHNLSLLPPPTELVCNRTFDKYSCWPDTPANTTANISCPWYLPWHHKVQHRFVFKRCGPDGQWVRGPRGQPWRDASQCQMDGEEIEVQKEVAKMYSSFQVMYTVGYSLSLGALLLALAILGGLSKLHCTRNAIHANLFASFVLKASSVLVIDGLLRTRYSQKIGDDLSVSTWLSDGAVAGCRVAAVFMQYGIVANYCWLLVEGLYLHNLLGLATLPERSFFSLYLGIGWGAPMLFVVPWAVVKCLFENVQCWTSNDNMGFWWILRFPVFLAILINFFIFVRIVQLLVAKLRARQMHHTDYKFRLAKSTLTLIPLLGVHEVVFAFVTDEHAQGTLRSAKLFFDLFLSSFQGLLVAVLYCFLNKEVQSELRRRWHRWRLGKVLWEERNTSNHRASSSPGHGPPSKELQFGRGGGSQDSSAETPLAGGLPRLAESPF
How it was run: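 Receptor source was a membrane fraction of transiently transfected CHO cells bearing human receptor; 90 min room-temperature binding, filtration harvest, scintillation counting.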

| inhibitory rate (%) at 10 μM [%] | Structure (SMILES) |
| --- | --- |
| 80 | COc1ccc2oc(C(Nc3ccc(C(=O)N(C)CCC(=O)O)cc3)C3CCCCC3)c(C)c2c1 (stereo not drawn) [Example A43, 3-{[(4-{[cyclohexyl(5-methoxy-3-methyl-1-benzofuran-2-yl)methyl]amino}phenyl)carbonyl](methyl)amino}propanoic acid] |
| 82 | COc1ccc2oc(C(Nc3ccc(C(=O)N(C)CCC(=O)O)cc3)C3CCCCC3)c(C)c2c1 (stereo not drawn) [Example A44, 3-{[(4-{[cyclohexyl(5-methoxy-3-methyl-1-benzofuran-2-yl)methyl]amino}phenyl)carbonyl](methyl)amino}propanoic acid] |
| 78 | Cc1c(C(Nc2ccc(C(=O)N(C)CCC(=O)O)cc2)C2CCCCC2)oc2ccc(F)cc12 (stereo not drawn) [Example A46, 3-{[(4-{[cyclohexyl(5-fluoro-3-methyl-1-benzofuran-2-yl)methyl]amino}phenyl)carbonyl](methyl)amino}propanoic acid] |
| 52 | Cc1c(C(Nc2ccc(C(=O)N(C)CCC(=O)O)cn2)C2CCCCC2)oc2ccc(F)cc12 (stereo not drawn) [Example A54, 3-{[(6-{[cyclohexyl(5-fluoro-3-methyl-1-benzofuran-2-yl)methyl]amino}pyridin-3-yl)carbonyl](methyl)amino}propanoic acid] |
| 85 | Cc1c(C(Nc2ccc(C(=O)N(C)CCC(=O)O)nc2)C2CCCCC2)oc2ccc(F)cc12 (stereo not drawn) [Example A57] |
| 85 | Cc1c(C(Nc2ccc(C(=O)N(C)CCC(=O)O)nc2)C2CCCCC2)sc2ccccc12 (stereo not drawn) [Example A60, 3-{[(5-{[cyclohexyl(3-methyl-1-benzothiophen-2-yl)methyl]amino}pyridin-2-yl)carbonyl](methyl)amino}propanoic acid] |

Same assay, conditions: test compound 10 μM; 0.4% DMSO = 0%, non-labeled glucagon 1 μM = 100%; read-out: inhibitory rate (%) at 10 μM

| inhibition at 10 µM [%] | Structure (SMILES) |
| --- | --- |
| 66 | COc1ccc2oc(C(Nc3ccc(C(=O)NCCC(=O)O)cc3)C3CCCCC3)cc2c1 (stereo not drawn) [Example A22, 3-{[(4-{[cyclohexyl(5-methoxy-1-benzofuran-2-yl)methyl]amino}phenyl)carbonyl]amino}propanoic acid] |
| 77 | Cc1c(C(CC(C)C)Nc2ccc(C(=O)NCCC(=O)O)cc2)oc2ccccc12 (stereo not drawn) [Example A23, 3-{[(4-{[3-methyl-1-(3-methyl-1-benzofuran-2-yl)butyl]amino}phenyl)carbonyl]amino}propanoic acid] |
| 70 | Cc1c(C(CC(C)C)Nc2ccc(C(=O)N(C)CCC(=O)O)cc2)oc2ccccc12 (stereo not drawn) [Example A24, 3-{methyl[(4-{[3-methyl-1-(3-methyl-1-benzofuran-2-yl)butyl]amino}phenyl)carbonyl]amino}propanoic acid] |
| 60 | COc1ccc2oc(C(Nc3ccc(C(=O)N(C)CCC(=O)O)cc3)C3CCCCC3)cc2c1 (stereo not drawn) [Example A25, 3-{[(4-{[cyclohexyl(5-methoxy-1-benzofuran-2-yl)methyl]amino}phenyl)carbonyl](methyl)amino}propanoic acid] |
| 64 | CCc1oc2ccccc2c1C(Nc1ccc(C(=O)N(C)CCC(=O)O)cc1)C1CCCCC1 (stereo not drawn) [Example A26, 3-{[(4-{[cyclohexyl(2-ethyl-1-benzofuran-3-yl)methyl]amino}phenyl)carbonyl](methyl)amino}propanoic acid] |
| 80 | COc1ccc2oc(C(Nc3ccc(C(=O)N(C)CCC(=O)O)cc3)C3CCCCC3)c(C)c2c1 (stereo not drawn) [Example A27, 3-{[(4-{[cyclohexyl(5-methoxy-3-methyl-1-benzofuran-2-yl)methyl]amino}phenyl)carbonyl](methyl)amino}propanoic acid] |
| 62 | COc1ccc2cc(C(Nc3ccc(C(=O)N(C)CCC(=O)O)cc3)C3CCCCC3)oc2c1 (stereo not drawn) [Example A28, 3-{[(4-{[cyclohexyl(6-methoxy-1-benzofuran-2-yl)methyl]amino}phenyl)carbonyl](methyl)amino}propanoic acid] |
| 77 | CCc1oc2ccccc2c1C(Nc1ccc(C(=O)NCCC(=O)O)cc1)C1CCCCC1 (stereo not drawn) [Example A29, 3-{[(4-{[cyclohexyl(2-ethyl-1-benzofuran-3-yl)methyl]amino}phenyl)carbonyl]amino}propanoic acid] |
| 76 | COc1ccc2oc(C(Nc3ccc(C(=O)NCCC(=O)O)cc3)C3CCCCC3)c(C)c2c1 (stereo not drawn) [Example A30, 3-{[(4-{[cyclohexyl(5-methoxy-3-methyl-1-benzofuran-2-yl)methyl]amino}phenyl)carbonyl]amino}propanoic acid] |
| 62 | CCc1c(C(CC(C)C)Nc2ccc(C(=O)N(C)CCC(=O)O)cc2)oc2ccccc12 (stereo not drawn) [Example A31, 3-{[(4-{[1-(3-ethyl-1-benzofuran-2-yl)-3-methylbutyl]amino}phenyl)carbonyl](methyl)amino}propanoic acid] |
| 72 | Cc1c(C(CC(C)C)Nc2ccc(C(=O)N(C)CCC(=O)O)cc2)sc2ccccc12 (stereo not drawn) [Example A32, 3-{methyl[(4-{[3-methyl-1-(3-methyl-1-benzothiophen-2-yl)butyl]amino}phenyl)carbonyl]amino}propanoic acid] |
| 76 | Cc1c(C(CC(C)C)Nc2ccc(C(=O)NCCC(=O)O)cc2)sc2ccccc12 (stereo not drawn) [Example A33, 3-{[(4-{[3-methyl-1-(3-methyl-1-benzothiophen-2-yl)butyl]amino}phenyl)carbonyl]amino}propanoic acid] |
| 75 | CCc1c(C(CC(C)C)Nc2ccc(C(=O)NCCC(=O)O)cc2)oc2ccccc12 (stereo not drawn) [Example A34, 3-{[(4-{[1-(3-ethyl-1-benzofuran-2-yl)-3-methylbutyl]amino}phenyl)carbonyl]amino}propanoic acid] |
| 71 | COc1ccc2cc(C(Nc3ccc(C(=O)NCCC(=O)O)cc3)C3CCCCC3)oc2c1 (stereo not drawn) [Example A35, 3-{[(4-{[cyclohexyl(6-methoxy-1-benzofuran-2-yl)methyl]amino}phenyl)carbonyl]amino}propanoic acid] |
| 73 | Cc1c(C(CC(C)C)Nc2ccc(C(=O)NCCC(=O)O)cn2)sc2ccccc12 (stereo not drawn) [Example A36, 3-{[(6-{[3-methyl-1-(3-methyl-1-benzothiophen-2-yl)butyl]amino}pyridin-3-yl)carbonyl]amino}propanoic acid] |
| 78 | Cc1c(C(Nc2ccc(C(=O)N(C)CCC(=O)O)cc2)C2CCCCC2)oc2ccc(F)cc12 (stereo not drawn) [Example A37, 3-{[(4-{[cyclohexyl(5-fluoro-3-methyl-1-benzofuran-2-yl)methyl]amino}phenyl)carbonyl](methyl)amino}propanoic acid] |
| 56 | Cc1c(C(CC(C)C)Nc2ccc(C(=O)N(C)CCC(=O)O)cn2)sc2ccccc12 (stereo not drawn) [Example A38, 3-{methyl[(6-{[3-methyl-1-(3-methyl-1-benzothiophen-2-yl)butyl]amino}pyridin-3-yl)carbonyl]amino}propanoic acid] |
| 78 | Cc1c(C(Nc2ccc(C(=O)NCCC(=O)O)cc2)C2CCCCC2)oc2ccc(F)cc12 (stereo not drawn) [Example A39, 3-{[(4-{[cyclohexyl(5-fluoro-3-methyl-1-benzofuran-2-yl)methyl]amino}phenyl)carbonyl]amino}propanoic acid] |
| 67 | COCc1c(C(Nc2ccc(C(=O)NCCC(=O)O)cc2)C2CCCCC2)oc2ccc(F)cc12 (stereo not drawn) [Example A47, 3-({[4-({cyclohexyl[5-fluoro-3-(methoxymethyl)-1-benzofuran-2-yl]methyl}amino)phenyl]carbonyl}amino)propanoic acid] |
| 66 | COCc1c(C(Nc2ccc(C(=O)N(C)CCC(=O)O)cc2)C2CCCCC2)oc2ccc(F)cc12 (stereo not drawn) [Example A48, 3-[{[4-({cyclohexyl[5-fluoro-3-(methoxymethyl)-1-benzofuran-2-yl]methyl}amino)phenyl]carbonyl}(methyl)amino]propanoic acid] |
| 71 | Cc1c(C(Nc2ccc(C(=O)NCCC(=O)O)cn2)C2CCCCC2)oc2ccc(F)cc12 (stereo not drawn) [Example A51, 3-{[(6-{[cyclohexyl(5-fluoro-3-methyl-1-benzofuran-2-yl)methyl]amino}pyridin-3-yl)carbonyl]amino}propanoic acid] |
| 64 | Cc1c(C(Nc2ccc(C(=O)N(C)CCC(=O)O)cn2)C2CCCCC2)oc2ccc(F)cc12 (stereo not drawn) [Example A52, 3-{[(6-{[cyclohexyl(5-fluoro-3-methyl-1-benzofuran-2-yl)methyl]amino}pyridin-3-yl)carbonyl](methyl)amino}propanoic acid] |
| 90 | Cc1c(C(Nc2ccc(C(=O)NCCC(=O)O)nc2)C2CCCCC2)oc2ccc(F)cc12 (stereo not drawn) [Example A55, 3-{[(5-{[cyclohexyl(5-fluoro-3-methyl-1-benzofuran-2-yl)methyl]amino}pyridin-2-yl)carbonyl]amino}propanoic acid] |
| 76 | Cc1c(C(Nc2ccc(C(=O)N(C)CCC(=O)O)nc2)C2CCCCC2)oc2ccc(F)cc12 (stereo not drawn) [Example A56, 3-{[(5-{[cyclohexyl(5-fluoro-3-methyl-1-benzofuran-2-yl)methyl]amino}pyridin-2-yl)carbonyl](methyl)amino}propanoic acid] |
| 77 | Cc1c(C(Nc2ccc(C(=O)N(C)CCC(=O)O)nc2)C2CCCCC2)sc2ccccc12 (stereo not drawn) [Example A59, 3-{[(5-{[cyclohexyl(3-methyl-1-benzothiophen-2-yl)methyl]amino}pyridin-2-yl)carbonyl](methyl)amino}propanoic acid] |
| 81 | Cc1c(C(Nc2ccc(C(=O)NCCC(=O)O)nc2)C2CCCCC2)sc2ccccc12 (stereo not drawn) [Example A62, 3-{[(5-{[cyclohexyl(3-methyl-1-benzothiophen-2-yl)methyl]amino}pyridin-2-yl)carbonyl]amino}propanoic acid] |
| 90 | Cc1c(C(Nc2ccc(C(=O)NCCC(=O)O)cc2)C2CCCC2)sc2ccccc12 (stereo not drawn) [Example A63, 3-{[(4-{[cyclopentyl(3-methyl-1-benzothiophen-2-yl)methyl]amino}phenyl)carbonyl]amino}propanoic acid] |
